Measured values: US20060016765A1, “Water treatment” (priority 2004, published 2006)
“And” between values parts separate entries of the source, which are not always exact repeats. Identical values can stand only once. Like-named read-outs stand apart in the source and are kept apart here.

Legend:
Assay type in all cases: cell-based
[1] = test system: Salmonella choleraesuis ATCC 10708
[2] = test system: Aspergillus fumigatus ATCC 1098; assay: Fungicidal activity, modified AOAC Method 955.17, spore kill; details: for reduction of the fungal bioburden: solutions equivalent to amounts found in the tablet solution
Procedure: This assay had several modifications from the published AOAC Fungicidal Activity of Disinfectants Protocol, Method 955.17. Aspergillus fumigatus ATCC 1098 was grown on Malt Extract Agar (available from Becton Dickinson, Billerica, Mass.) plates, and spores were harvested. Spores were stored in filter-sterilized Millipore water at −20° C. The spore preparation used for this experiment is detailed below. A freezer stock of A. fumigatus was defrosted and diluted to obtain an inoculum suspension for this experiment. […] The following test solutions were prepared using filter-sterilized MILLIPORE water in steam-sterilized 4 L bottles:
Water Control: (filter-sterilized water only), pH 6.28.
OXONE Control: 3.78 g OXONE in 1 gallon (about 3.8 liters) sterile water, buffered to pH 4.43 using 0.98 g NaHCO3 and 5.25 g 10% H2SO4.
Chlorite Control: 0.26 g of sodium chlorite in 1-gallon sterile water buffered to pH 4.55 (1.8 g 10% H2SO4).
Buffer Control: sodium bicarbonate, pH adjusted to 4.4.
Chlorine Dioxide: Anthium Dioxide (stabilized sodium chlorite available from IDI, North Kingston, R1) was acidified with HCl.
CLOROX control: 4.17% (v/v) CLOROX bleach available from Clorox Company, Oakland, Calif. (v/v) in MILLIPORE water by mixing 4.17 ml of Clorox bleach and water up to 100 ml total volume.
Reaction tubes: 5 ml of each test solution was aliquoted into 25×150 mm test culture tubes, capped and labeled according to Table 6. 9 ml of D/E (Dey/Engley) Neutralizing Broth (available from Becton Dickinson, Billerica, Mass.) was added to each of 28 test tubes and the tubes were capped. Butterfield buffer blanks were arranged for dilution of neutralized samples, and Malt Extract Agar plates were numbered for spore enumerations of the diluted, neutralized samples. With a graduated pipette, 0.5 ml of spore inoculum (about […]) was added to the first tube of test solution and gently shaken. After 5- and 15-minute exposures to the respective test solutions, samples were gently shaken and 1 ml samples were removed from each reaction mixture (spore-test solution) using an Eppendorf pipette and placed in 9 ml D/E (Dey/Engley) Neutralizing Broth. The inoculum was further diluted to approximately 10^4 condia/ml. Two more reaction tubes (water and OXONE-chlorite) and four Dey/Engley neutralization tubes were prepared to evaluate the efficacy of the tablet solution versus a final inoculum density of 10^4 condia/ml in the reaction tube. Samples were reacted for 15 minutes only. Dilutions of neutralized samples were prepared. Two 100 μl aliquots of all samples in D/E (Dey/Engley) Neutralizing Broth were plated on Malt Extract Agar and incubated at 25° C. until the appearance of colonies. Plates were counted after colonies appeared, roughly 4 days after incubation. Several dilutions of the inoculum spore suspensions were also plated on Malt Extract Agar to obtain an accurate count of viable spores used as inoculum. The samples were incubated at 25° C. and counted after the appearance of colonies, after about 4 days of incubation.
Buffer control data was taken after 15 minutes. CLOROX control data was taken after 5 minutes of treatment.

[3] = test system: Staphylococcus aureus ATCC 6538; assay: Microbial efficacy, modified AOAC 965.13, serial-dilution plate count
[4] = test system: Pseudomonas aeruginosa ATCC 15442; assay: as above
[5] = 30 sec exposure, Example 11 = 1,008 ppm Oxone + 55.5 ppm Chlorite, controls 1,008 ppm Oxone, 55.5 ppm Chlorite, 23.2 ppm ClO2
[6] = 30 sec exposure, Example 11 = 1,008 ppm Oxone + 55.5 ppm Chlorite, controls 1,008 ppm Oxone, 55.5 ppm Chlorite, 23.2 ppm ClO2, low level of detection 1.0E+01 CFU/mL
[7] = 10 min exposure, Example 11 = 1,008 ppm Oxone + 55.5 ppm Chlorite, controls 1,008 ppm Oxone, 55.5 ppm Chlorite, 23.2 ppm ClO2
[8] = 10 min exposure, Example 11 = 1,008 ppm Oxone + 55.5 ppm Chlorite, controls 1,008 ppm Oxone, 55.5 ppm Chlorite, 23.2 ppm ClO2, low level of detection 1.0E+01 CFU/mL

Molecule | CFU/ml [1] | Surviving Bioburden Counts (germinating spores, conidia/ml) ([2]; 5 min, 2 replicates average) | Surviving Bioburden Counts (germinating spores, conidia/ml) ([2]; 15 min, 2 replicates average) | reduction of the fungal bioburden [2] | reduction of the bioburden within 15 minutes of treatment [2] | Δt (log difference test and control densities) [3, 5] | CFU/ml [3, 6] | Δt (log difference test and control densities) [3, 7] | CFU/ml [3, 8] | Δt (log difference test and control densities) [4, 5] | CFU/ml [4, 6] | Δt (log difference test and control densities) [4, 7] | CFU/ml [4, 8] | also measured
triple salt of potassium monopersulfate, potassium hydrogen sulfate and potassium sulfate [Oxone control] | 2.95E + 03 CFU/ml and 2.14E + 06 CFU/ml | 3.45E + 05 conidia/ml | 5.70E + 05 conidia/ml | ineffective in reducing the fungal bioburden | not able to reduce the bioburden | 0.0 log | 1.52E + 06 CFU/ml | 0.4 log | 6.15E + 05 CFU/ml | 0.0 log | 9.50E + 05 CFU/ml | 5.1 log | 1.00E + 01 CFU/ml | –
[O][Cl+][O-] [ClO2 control, chlorine dioxide] | 1.00E + 01 CFU/ml | – | – | – | – | – | – | – | – | – | – | – | – | Δt (log difference test and control densities) [1]: 5.1 log and 5.3 log; Surviving Bioburden Counts (germinating spores, conidia/ml) [2]: 0.00E + 00 conidia/ml; kill of A. fumigatus spores within 5 minutes [2]: 5 log; CFU/ml [3]: 1.00E + 01 CFU/ml; Δt (log difference test and control densities) [3]: 5.1 log and 5.2 log; CFU/ml [4]: 1.00E + 01 CFU/ml; Δt (log difference test and control densities) [4]: 5 log and 5.0 log and 5.1 log
sodium chlorite [Chlorite control] | – | 4.25E + 05 conidia/ml | 6.25E + 05 conidia/ml | ineffective in reducing the fungal bioburden | not able to reduce the bioburden | 0.0 log | 1.23E + 06 CFU/ml | 0.1 log | 1.20E + 06 CFU/ml | −0.1 log | 1.17E + 06 CFU/ml | 0.0 log | 1.21E + 06 CFU/ml | Δt (log difference test and control densities) [1, 5]: −0.3 log; CFU/ml [1, 6]: 3.09E + 06 CFU/ml; Δt (log difference test and control densities) [1, 7]: 0.2 log; CFU/ml [1, 8]: 1.27E + 06 CFU/ml
